Read-outs that look alike come from different tables or passages of the source.
Key:
[1] = system: Amaranthus rudis (AMATA), tall water hemp; assay: Postemergence herbicide evaluation, growth of Amaranthus rudis (AMATA); type: in vivo; details: Amaranthus tuberculatus, post-emergence, read-out: Ave. AMATA, percent reduction in plant size relative to the untreated control
[2] = system: weeds ABUTH, AMATA, AMBEL, CHEAL, ERICA; assay: Postemergence herbicide evaluation, overall average % weed control (ABUTH, AMATA, AMBEL, CHEAL, ERICA); type: in vivo; details: post-emergence, read-out: Overall Ave % Weed Control
[3] = system: Abutilon theophrasti (ABUTH), velvetleaf; assay: Postemergence herbicide evaluation, growth of Abutilon theophrasti (ABUTH); type: in vivo; details: Abutilon theophrasti, post-emergence, read-out: AVE. ABUTH, percent reduction in plant size relative to the untreated control
[4] = system: Chenopodium album (CHEAL), common lambsquarters; assay: Postemergence herbicide evaluation, growth of Chenopodium album (CHEAL); type: in vivo; details: Chenopodium album, post-emergence, read-out: Ave. CHEAL, percent reduction in plant size relative to the untreated control
[5] = Volatility of compounds measured by thermogravimetric analysis (TGA); type: physicochemical
[6] = system: glyphosate resistant Conyza canadensis (L.) (ERICA), horseweed; assay: Postemergence herbicide evaluation, growth of Conyza canadensis (ERICA); type: in vivo; details: Erigeron canadensis, post-emergence, read-out: Ave. ERICA, percent reduction in plant size relative to the untreated control; for pest or weed control at 280 g/ha: 280 g ae/ha; for pest or weed control at 560 g/ha: 560 g ae/ha
[7] = system: Ambrosia artemisiifolia (AMBEL), common ragweed; assay: Postemergence herbicide evaluation, growth of Ambrosia artemisiifolia (AMBEL); type: in vivo; details: Ambrosia artemisiifolia, post-emergence, read-out: AVE. AMBEL, percent reduction in plant size relative to the untreated control

What does the source list for `Cc1nccc(NC(=O)COc2ccc(Cl)cc2Cl)c1C` [Compound D26]?
pest or weed control at 280 g/ha ([1]; 168 h, 280 g ae/ha, 7 DAA): 72.5%; pest or weed control at 560 g/ha ([1]; 168 h, 560 g ae/ha, 7 DAA): 85%; pest or weed control at 280 g/ha ([1]; 336 h, 280 g ae/ha, 14 DAA): 88.5%; pest or weed control at 560 g/ha ([1]; 336 h, 560 g ae/ha, 14 DAA): 87.5%; pest or weed control at 280 g/ha ([1]; 504 h, 280 g ae/ha, 21 DAA): 75%; pest or weed control at 560 g/ha ([1]; 504 h, 560 g ae/ha, 21 DAA): 87.5%; pest or weed control at 280 g/ha ([2]; 168 h, 280 g ae/ha, 7 DAA): 64.5%; pest or weed control at 560 g/ha ([2]; 168 h, 560 g ae/ha, 7 DAA): 73.5%; pest or weed control at 280 g/ha ([2]; 336 h, 280 g ae/ha, 14 DAA): 77.5%; pest or weed control at 560 g/ha ([2]; 336 h, 560 g ae/ha, 14 DAA): 83%; pest or weed control at 280 g/ha ([2]; 504 h, 280 g ae/ha, 21 DAA): 78.5%; pest or weed control at 560 g/ha ([2]; 504 h, 560 g ae/ha, 21 DAA): 85%; pest or weed control at 280 g/ha ([3]; 168 h, 280 g ae/ha, 7 DAA): 42.5%; pest or weed control at 560 g/ha ([3]; 168 h, 560 g ae/ha, 7 DAA): 55%; pest or weed control at 280 g/ha ([3]; 336 h, 280 g ae/ha, 14 DAA): 52.5%; pest or weed control at 560 g/ha ([3]; 336 h, 560 g ae/ha, 14 DAA): 65%; pest or weed control at 280 g/ha ([3]; 504 h, 280 g ae/ha, 21 DAA): 62.5%; pest or weed control at 560 g/ha ([3]; 504 h, 560 g ae/ha, 21 DAA): 70%; pest or weed control at 280 g/ha ([4]; 168 h, 280 g ae/ha, 7 DAA): 75%; pest or weed control at 560 g/ha ([4]; 168 h, 560 g ae/ha, 7 DAA): 77.5%; pest or weed control at 280 g/ha ([4]; 336 h, 280 g ae/ha, 14 DAA): 85%; pest or weed control at 560 g/ha ([4]; 336 h, 560 g ae/ha, 14 DAA): 77.5%; pest or weed control at 280 g/ha ([4]; 504 h, 280 g ae/ha, 21 DAA): 92.5%; pest or weed control at 560 g/ha ([4]; 504 h, 560 g ae/ha, 21 DAA): 95%; TGA Data (rate of weight loss, volatility) [5]: 0.09713 µg/min; pest or weed control at 280 g/ha ([6]; 168 h, 7 DAA): 57.5%; pest or weed control at 560 g/ha ([6]; 168 h, 7 DAA): 60%; pest or weed control at 280 g/ha ([6]; 336 h, 14 DAA): 91.5%; pest or weed control at 560 g/ha ([6]; 336 h, 14 DAA): 100%; pest or weed control at 280 g/ha ([6]; 504 h, 21 DAA): 62.5%; pest or weed control at 560 g/ha ([6]; 504 h, 21 DAA): 72.5%; pest or weed control at 280 g/ha ([7]; 168 h, 280 g ae/ha, 7 DAA): 75%; pest or weed control at 560 g/ha ([7]; 168 h, 560 g ae/ha, 7 DAA): 90%; pest or weed control at 280 g/ha ([7]; 336 h, 280 g ae/ha, 14 DAA): 70%; pest or weed control at 560 g/ha ([7]; 336 h, 560 g ae/ha, 14 DAA): 85%; pest or weed control at 280 g/ha ([7]; 504 h, 280 g ae/ha, 21 DAA): 100%; pest or weed control at 560 g/ha ([7]; 504 h, 560 g ae/ha, 21 DAA): 100%

Which pest or weed control at 280 g/ha ([1]; 168 h) does the source give for `O=C(COc1ccc(Cl)cc1Cl)OCc1ccc(COC(=O)COc2ccc(Cl)cc2Cl)cc1` [Compound B1, 1,4-Phenylenebis(methylene) bis(2-(2,4-dichlorophenoxy)acetate)] here?
Its pest or weed control at 280 g/ha is 40%.

What about the pest or weed control at 560 g/ha ([1]; 168 h) of the same compound?
Its pest or weed control at 560 g/ha is 40%.

What about the pest or weed control at 280 g/ha ([1]; 336 h) of the same compound?
Its pest or weed control at 280 g/ha is 25%.

What about the pest or weed control at 560 g/ha ([1]; 336 h) of the same compound?
Its pest or weed control at 560 g/ha is 35%.

What about the pest or weed control at 280 g/ha ([1]; 504 h) of the same compound?
The pest or weed control at 280 g/ha was 30%.

What about the pest or weed control at 560 g/ha ([1]; 504 h) of the same compound?
Its pest or weed control at 560 g/ha is 48%.

And the pest or weed control at 280 g/ha ([2]; 168 h)?
Its pest or weed control at 280 g/ha is 19%.

What about the pest or weed control at 560 g/ha ([2]; 168 h) of the same compound?
The pest or weed control at 560 g/ha was 31%.

And the pest or weed control at 280 g/ha ([2]; 336 h)?
Its pest or weed control at 280 g/ha is 21%.

And the pest or weed control at 560 g/ha ([2]; 336 h)?
The pest or weed control at 560 g/ha was 29%.

And the pest or weed control at 280 g/ha ([2]; 504 h)?
The pest or weed control at 280 g/ha was 13%.

And the pest or weed control at 560 g/ha ([2]; 504 h)?
The pest or weed control at 560 g/ha was 21%.

And the pest or weed control at 280 g/ha ([3]; 168 h)?
The pest or weed control at 280 g/ha was 5%.

And the pest or weed control at 560 g/ha ([3]; 168 h)?
Its pest or weed control at 560 g/ha is 13%.

What about the pest or weed control at 280 g/ha ([3]; 336 h) of the same compound?
Its pest or weed control at 280 g/ha is 8%.

And the pest or weed control at 560 g/ha ([3]; 336 h)?
The pest or weed control at 560 g/ha was 5%.

And the pest or weed control at 280 g/ha ([3]; 504 h)?
The pest or weed control at 280 g/ha was 8%.

And the pest or weed control at 560 g/ha ([3]; 504 h)?
Its pest or weed control at 560 g/ha is 3%.

What about the pest or weed control at 280 g/ha ([4]; 168 h) of the same compound?
Its pest or weed control at 280 g/ha is 15%.

What about the pest or weed control at 560 g/ha ([4]; 168 h) of the same compound?
Its pest or weed control at 560 g/ha is 55%.

What about the pest or weed control at 280 g/ha ([4]; 336 h) of the same compound?
Its pest or weed control at 280 g/ha is 25%.

What about the pest or weed control at 560 g/ha ([4]; 336 h) of the same compound?
The pest or weed control at 560 g/ha was 53%.

And the pest or weed control at 280 g/ha ([4]; 504 h)?
Its pest or weed control at 280 g/ha is 20%.

And the pest or weed control at 560 g/ha ([4]; 504 h)?
The pest or weed control at 560 g/ha was 33%.

What about the “TGA Data (rate of weight loss, volatility)” value [5] of the same compound?
The value was 0.03 µg/min.

And the pest or weed control at 280 g/ha ([7]; 168 h)?
Its pest or weed control at 280 g/ha is 23%.

And the pest or weed control at 560 g/ha ([7]; 168 h)?
The pest or weed control at 560 g/ha was 20%.

And the pest or weed control at 280 g/ha ([7]; 336 h)?
Its pest or weed control at 280 g/ha is 18%.

What about the pest or weed control at 560 g/ha ([7]; 336 h) of the same compound?
Its pest or weed control at 560 g/ha is 18%.

What about the pest or weed control at 280 g/ha ([7]; 504 h) of the same compound?
Its pest or weed control at 280 g/ha is 0%.

And the pest or weed control at 560 g/ha ([7]; 504 h)?
The pest or weed control at 560 g/ha was 5%.

For `O=C(COc1ccc(Cl)cc1Cl)OCCOCCOC(=O)COc1ccc(Cl)cc1Cl` [Compound B2, Oxybis(ethane-2,1-diyl) bis(2-(2,4-dichlorophenoxy)acetate)], which pest or weed control at 280 g/ha ([2]; 168 h) is on record?
Its pest or weed control at 280 g/ha is 73%.

What about the pest or weed control at 560 g/ha ([2]; 168 h) of the same compound?
The pest or weed control at 560 g/ha was 75%.

And the pest or weed control at 280 g/ha ([2]; 336 h)?
Its pest or weed control at 280 g/ha is 83%.

What about the pest or weed control at 560 g/ha ([2]; 336 h) of the same compound?
The pest or weed control at 560 g/ha was 89%.

What about the pest or weed control at 560 g/ha ([2]; 504 h) of the same compound?
The pest or weed control at 560 g/ha was 94%.

And the “TGA Data (rate of weight loss, volatility)” value [5]?
The value was 0.04 µg/min.

Source: US20260042731A1, “(2,4-DICHLOROPHENOXY)ACETIC ACID ANALOGS” (CORTEVA AGRISCIENCE LLC, priority 2022, published 2026)
